Measured values from patent publication US20210145768A1, “MODULATING IMMUNE RESPONSE VIA TARGETING OF OLFACTORY RECEPTOR ACTIVITY” (La Jolla Institute for Allergy and Immunology, priority 2018, published 2021).

Tests used:
OR6A2 = target: T1, OR6A2 (Homo sapiens, UniProt O95222); test: IL-1β production in LPS-primed human MDMs; format: cell-based
T1 construct: OR6A2 protein surface expression in hMDMs was confirmed by flow cytometry; endogenous in cells; host or cells: human monocyte-derived macrophages from healthy donors (rhM-CSF, 7 d)
T1 sequence (O95222 1-327): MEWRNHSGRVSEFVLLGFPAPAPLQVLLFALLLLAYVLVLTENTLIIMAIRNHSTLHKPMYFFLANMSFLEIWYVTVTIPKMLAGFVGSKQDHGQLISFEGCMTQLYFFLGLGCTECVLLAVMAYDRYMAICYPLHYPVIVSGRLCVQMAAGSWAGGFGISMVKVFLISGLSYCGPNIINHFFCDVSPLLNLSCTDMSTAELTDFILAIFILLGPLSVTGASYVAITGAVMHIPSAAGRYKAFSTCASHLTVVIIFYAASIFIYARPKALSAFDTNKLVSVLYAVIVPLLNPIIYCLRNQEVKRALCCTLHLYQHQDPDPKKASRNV
Description: Mouse BMDMs and human MDMs were pretreated with LPS (50 ng/mL) or left untreated for 18 h at 37° C. and 5% CO2. After this period LPS pretreated and untreated cells were further incubated with Oct (10 μM) and Cit (100 μM) alone (LPS+Oct; LPS+Cit; Oct; Cit, respectively) or combined (LPS+Oct+Cit) for further 8 h. Supernatants were collected by centrifugation at 2000 g for 15 minutes at 4° C., collected and frozen at −80° C. until further IL-1β analysis by CBA (BD Biosciences).
Supernatants of stimulated cells and aortic tissue were analyzed by BD CBA Flex Sets (BD Biosciences) for mouse TNFα, CCL2, CCL4, IL-1β, or human TNF, IL6, and IL-1β according to the manufacturer's protocol. Samples were analyzed with LSR-II (BD Biosciences). Data was acquired with FACSDiva software (BD Biosciences) and analyzed with FCAP array software 3.0 (BD Biosciences).

Olfr2 = target: T2, Olfr2 (Mus musculus, UniProt Q9QWU6); test: Calcium signalling (Fluo-4, flow cytometry) in vascular macrophages; format: cell-based; design: Olfr2 expression was confirmed at the protein level on F4/80^+ vascular macrophages; from tissue; host or cells: explanted whole aortas, digested aortic cell suspensions (F4/80+ vascular macrophages) and blood monocytes of Apoe-/- C57BL/6J mice; living Apoe-/- mice for the in vivo study
T2 sequence (Q9QWU6 1-327): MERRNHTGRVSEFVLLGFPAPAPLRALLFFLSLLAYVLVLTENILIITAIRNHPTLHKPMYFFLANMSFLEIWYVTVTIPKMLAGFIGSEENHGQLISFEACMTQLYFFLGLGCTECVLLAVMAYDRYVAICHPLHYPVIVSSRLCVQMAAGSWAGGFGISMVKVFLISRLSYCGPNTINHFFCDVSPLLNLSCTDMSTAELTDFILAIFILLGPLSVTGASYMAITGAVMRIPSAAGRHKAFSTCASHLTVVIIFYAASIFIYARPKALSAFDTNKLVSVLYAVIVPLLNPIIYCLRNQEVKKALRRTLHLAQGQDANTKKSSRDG
Description: The role of Olfr2 ligation on inflammatory responses was investigated by measuring intracellular free calcium (Can in vascular macrophages. Briefly, mouse aortic cell suspensions were loaded with 2 μM Fluo-4 at 37° C. for 30 min, then washed and incubated with cell surface markers at RT for 20 min CD45^+, live, dump channel^− (TCRb^−, CD19^−), F4/80^+ macrophages were analyzed by flow cytometry. Olfr2 agonist Oct (10 μM), and antagonist Cit (100 μM) alone or combined (Oct+Cit) were added 60 seconds (s) after the acquisition started. DMSO (0.1%) was injected as a control (Ctrl).
Aortic cell suspensions obtained as previously described^18 were pre-incubated with extracellular markers for vascular macrophages including CD45-PerCP, TCRβ/CD4-APCCy7 (Dump Channel), F4/80-BV421 and LD Yellow fixable dye (Invitrogen) for 20 min in Fc block solution at RT in the dark. Aortic cell suspensions were than washed twice and loaded with 2 μM of Fluo4 dye (Thermo Fischer Scientific) for 30 min at 37° C.
Subsequently, cells were washed and resuspended in 37° C. warm HBSS buffer containing Ca^2+ and Mg^2+ and acquired with the LSRII flow cytometer. After 60 seconds, Oct (10 μM), Cit (100 μM) or vehicle (DMSO 0.1%) was added and acquisition continued for additional 140 seconds. Data was acquired with FACSDiva software (BD Biosciences) and analyzed with FlowJo software (Treestar Inc). Mean fluorescence intensity of Fluo4 was integrated over 25 seconds form the start of the acquisition (tot. 8 intervals).

[1] = Plasma lipids, body weight and hematological parameters in treated Apoe−/− mice; format: in vivo, mouse
Description: Male Apoe^−/− mice (9 to 10 wks old) were fed WD for 4 weeks. Oct or Cit were diluted in sterile phosphate buffered saline (PBS) (Gibco) at a final concentration of 10 μg/g. 100 μl were injected intraperitoneally (i.p.) every 3 days for 4 weeks (12 injections total) while maintaining WD administration. PBS+0.1% DMSO (Sigma Aldrich) was injected as a vehicle control following the same protocol. Mice were sacrificed, perfused with PBS implemented with 2% heparin (Fresenius Kabi USA, LLC) and aortas removed for en face atherosclerotic lesion assessment. Mouse whole blood (heart puncture) was collected in EDTA tubes. Leukocyte blood counts were determined with HemaVet 950 (Drew Scientific). Plasma was collected from blood centrifuged at 3000 g for 15 min at 4° C. and stored at −80° C. until further analysis. Lipid analysis of collected plasma was performed by IDEXX BioResearch.

Structure (SMILES) | octanal-induced IL-1β in the supernatant, hMDMs (OR6A2; LPS, octanal + citral) | octanal-induced calcium flux in vascular macrophages (Olfr2; citral 100 μM + octanal 10 μM) | other parameters (body weight, hematological, lipids) ([1]; citral-treated Apoe−/− mice) | IL-1β in the supernatant, hMDMs (OR6A2; LPS 50 ng/mL 18 h, then octanal) | calcium signal in other immune cells (TCRb+, CD19+) (Olfr2; octanal 10 μM, citral 100 μM alone or combined) | intracellular free calcium (Fluo-4 MFI) in F4/80+ vascular macrophages (Olfr2; octanal 10 μM, at 100 and 125 s after injection) | total cholesterol, LDL cholesterol, HDL cholesterol or triglycerides ([1]; octanal-treated Apoe−/− mice)
CC(C)=CCCC(C)=CC=O [citral] | partially but significantly inhibited | completely blocked | no effect | – | – | – | –
CCCCCCCC=O [octanal] | – | – | – | highly significant increase | No calcium signal | highly significant increase | no effect
